Measured values taken from US8119614B2, “Substitution derivatives of N6-benzyladenosine, methods of their preparation, their use for preparation of drugs, cosmetic preparations and growth regulators, pharmaceutical preparations, cosmetic preparations and growth regulators containing these compounds” (Ustav Experimentalni Botaniky Akademie Ved Ceske Republiky, priority 2002, dated 2012).

Legend:
[1] = system: human diploid fibroblasts (HCA cells); test: Inhibition of senescence of mammal cells: β-galactosidase staining of senescent cells; type: cell-based; conditions: for Senescent cells (%) HCA25: passage 25; for Senescent cells (%) HCA45: passage 45; for Senescent cells (%) HCA80: passage 80
Experimental: In this example, human diploid fibroblasts (HCA cells with different levels of passage: passage 25—labelling HCA25; passage 45—labelling HCA45; passage 80—labelling HCA80) were used for studying β-galactosidase activity. Medium used for cells cultivation was removed, cells were washed twice with PBS and fixed in 2-3 ml of fixation agent consisting of 2% of formaldehyde and 0.2% of flutaraldehyde in PBS. Cells were incubated at room temperature for 5 min and subsequently washed twice with PBS. Cells were then incubated at 37° C. (without CO2) for 1 to 16 hours in 2-3 ml of solution comprising potassium ferricyanide (5 mM), potassium ferrocyanide (5 mM), MgCl2 (2 mM), X-gal (5-bromo-4-chloro-3-indolyl-β-D-galactopyranoside) (1 mg/ml) in citrate/phosphate buffer, pH 6.0. […] In this experiment only senescent cells were labelled due to the effect of β-galactosidase on the substrate.

Rosa multiflora = test: In vitro and post vitro multiplication and rooting of rose; type: in vivo; conditions: for Root number per plant / Total root length per plant (cm): Ex vitro, after four weeks of acclimatising; for Flower number per explant / Number of new shoots per explant / Root number per explant / Total root length per explant (cm): In vitro, 10 μM, 8 weeks
[2] = system: spring wheat (variety Sandra); test: Field studies: yield analysis of spring wheat crop; type: in vivo; conditions: spray of 10^−6 molar solution, Control = 100.0
Experimental: Crops (over the 4-year period) of spring wheat were sown in the experimental fields of Czech Agriculture University (CZU) (region of sugar beet production type) at a seeding rate of 400 germinative grains·m^−2 into ploughed and shoddy soil containing 116.1 mg/kg P, 228.3 mg/kg K, and 211.8 mg/kg Mg (agrochemical analyses were done at Department of Pedology CZU) (interval between ploughing and sowing is usually 3-4 days, longer only in case of adverse weather conditions). Preceding crop was rape. Soil preparation was done by the classical way using skid and harrow and after seeding is rolled.
(§1) Height of plants, leaf area, dry matter, development of vegetation opex—bases of future spike, and number of spikelets were monitored after germination in 14 day intervals, […]. From these primary data, values used in production physiology are derived, as leaf area index LAI, photosynthetic capacity LAD, tillering potential. Experiments with treatment of spring wheat crop (variety Sandra) are carried out on the field (area 10 m^2, four replicates) by spraying 1 litr of 10^−6 molar solution of tested compound (cytokinin) at the transition period from jointing stage to athesis stage (49 DC).
Yield analysis, evaluating spike lenght and seed number per spikelet (Σ Z/K) were carried out for 30 plant per each variant, yield from 1 m^2 and 1000 grain weight (HTS) was determined from 8 replicates, yield per ha was subsequently calculated.

glutamate kinase = test: Field studies: glutamate kinase activity in spring wheat; type: in vivo; parameters: tested at 1 µM (10^-6 M spray solution); conditions: 6 days after the application, Control = 100.0
Experimental: as §1
Glutamate kinase activity was determined 6 days after the application. This enzyme was selected because of good corelation of its activity changes and state of transport of endogenous substances (nutrients from roots, assimilates to cariopsis), respiration, energy (adenosintriphosphate) transfer, storage of nutrients, growth and developmental proceses, and also metabolism of proline, which is known from literature to play an important role in adaptation against stress (unsuitable stand, drought, hypersalinity, coldness) and also in regulation of both theoretical and real production (restriction of seed number reduction per spikelet). Enzyme glutamate kinase catalyses to glutamate conversion into γ glutamylphosphate, which is first step of proline biosynthesis from glutamate. Therefore, this enzyme is, as essential precursor of other plant metabolic pathways, marker of stress inhibition. It can be determined spectrofotometrically (Vasáková, 1980). For analysis, acetone powder is prepared from a sample by standard method, subsequently extracted by 0.05M potassium-phosphate buffer pH=7.2 and centrifugated. Glutamate kinase fraction is precipitated using crystalline ammonium sulfate and after dialysis, glutamate kinase activity is determined spectrophotometrically. Proline accumulation increased by stress corresponds as a “feedback” to glutamate kinase inhibition.

p21^WAF-1 protein = test: Induction of p21^WAF-1 protein in MCF-7 cells (SDS-PAGE, immunodetection); type: cell-based, human
Experimental: MCF-7 cells cultured at 37° C. in 5% CO2 atmosphere in D-MEM medium supplemented with 10% foetal calf serum were treated with 2OH3MeOBAPR concentrations range of 0-100 μM. 2OH3MeOBAPR was added into the medium from the 100 mM storage solution in DMSO. Cells were harvested after 12 hours incubation with 2OH3MeOBAPR, centrifuged (1000 rpm, 4° C., 5 min), washed twice by ice-cold PBS and re-centrifuged. These washed cells were then lysed by 1×CSB (loading buffer for SDS-PAGE, i.e. electrophoresis of proteins in polyacrylamide gel containing SDS). Cell lysate proteins were separated by SDS-PAGE and transferred onto a nitrocelulose (NC) membrane. NC membrane was blocked by 5% skimmed milk, 0.1% Tween 20 in PBS. Protein level of p21^WAF-1 and actin (as a loaded protein volume control) were detected immunochemically using commercially available specific monoclonal antibodies anti-p21^WAF-1 (Ab-1, Calbiochem) and anti-Actin (Clone AC-40, Sigma-Aldrich). The primary antibodies bind to target proteins were detected using rabbit secondary peroxidase-labeled antibody (RAM-Px, DAKO), followed by chemiluminiscence (ECL, Amersham-Pharmacia).
MCF-7 cells were incubated in presence of 1 μM 2OH3MeOBAPR. Treated cells were harvested and lysed after various time periods of 2OH3MeOBAPR treatment. […]

HL-60 cells = test: HL-60 cell proliferation and viability (FDA/PI staining); type: cell-based, human
Experimental: Cell culture. A suspension of human promyelocytic HL-60 cells was cultured in RPMI-1640 medium supplemented with a 10% calf foetal serum and antibiotics in 5% CO2 atmosphere at 37° C. Cells were maintained at density from 1×10^5 to 6×10^5 cells per ml. HL-60 cells were obtained from ECACC.
Cell viability assay. Double staining with fluorescein diacetate (FDA) and propidium iodide (PI) for discrimination of dead and living cells was used. Cells were stained in growing medium with PI at a concentration 10 μg/ml 5 min later FDA was added at a concentration 1 μg/ml. The percentage of dead cells (i.e., red stained cells) was evaluated using fluorescence microscopy (Mlejnek and Kolman 1999).

Compound	Senescent cells (%) HCA25 [1] [%]	Senescent cells (%) HCA45 [1] [%]	Senescent cells (%) HCA80 [1] [%]	HTS (%) (1000 grain weight) [2]	Yield(%) [2] [%]	Σ Z/K (%) (seed number per spikelet) [2]	Σ spike/m^2 (%) [2] [%]	GK % (glutamate kinase activity) (glutamate kinase) [%]	further results
COc1ccccc1CNc1ncnc2c1ncn2[C@@H]1O[C@H](CO)[C@@H](O)[C@H]1O [2-methoxybenzylamino, 6-(2-methoxybenzylamino)purine riboside]	4	4	16						Root number per plant (Rosa multiflora): 1.6; Total root length per plant (cm) (Rosa multiflora): 4.8 cm; Flower number per explant (Rosa multiflora): 0.17; Number of new shoots per explant (Rosa multiflora): 1.4; Root number per explant (Rosa multiflora): 0.0; Total root length per explant (cm) (Rosa multiflora): 0.0 cm
OC[C@H]1O[C@@H](n2cnc3c(NCc4cccc(F)c4)ncnc32)[C@H](O)[C@@H]1O [3-fluorobenzylamino, 6-(3-fluorobenzylamino)purine riboside]	3	5	13						
OC[C@H]1O[C@@H](n2cnc3c(NCc4cccc(Cl)c4)ncnc32)[C@H](O)[C@@H]1O [3-chlorobenzylamino, 6-(3-chlorobenzylamino)purine riboside]				108.3	128.8	119.1	100.5	124.7	
OC[C@H]1O[C@@H](n2cnc3c(NCc4ccc(Cl)c(Cl)c4)ncnc32)[C@H](O)[C@@H]1O [3,4-dichlorobenzylamino, 6-(3,4-dichlorobenzylamino)purine riboside]				101.5	113.3	111.9	99.7	114.2	
OC[C@H]1O[C@@H](n2cnc3c(NCc4ccccc4F)ncnc32)[C@H](O)[C@@H]1O [2-fluorobenzylamino, 6-(2-fluorobenzylamino)purine riboside]	4	4	15						
OC[C@H]1O[C@@H](n2cnc3c(NCc4cccc(Br)c4)ncnc32)[C@H](O)[C@@H]1O [3-bromobenzylamino, 6-(3-bromobenzylamino)purine riboside]				101.5	131.8	123.8	104.9	116.6	
COc1cccc(CNc2ncnc3c2ncn3[C@@H]2O[C@H](CO)[C@@H](O)[C@H]2O)c1O [2-hydroxy-3-methoxybenzylamino, 6-(2-hydroxy-3-methoxybenzylamino)purine riboside]									p21^WAF-1 protein induction in dependence on duration of incubation (p21^WAF-1 protein; 1 μM, 6-24 hours after addition): Efficient p21^WAF-1 protein induction is achieved; p21^WAF-1 protein induction in dependence on concentration (p21^WAF-1 protein; 12 hours, 0-100 μM, effective at units of μmol/liter): Efficient p21^WAF-1 protein induction is achieved; inhibition of HL-60 cell proliferation (HL-60 cells; 2.5-60 μM (FIG. 4)): inhibit cell proliferation; cytotoxicity of the compound itself versus its phosphorylated forms (HL-60 cells; HL-60 cells): is not cell cytotoxic by itself
COc1cccc(CNc2ncnc3c2ncn3[C@@H]2O[C@H](CO)[C@@H](O)[C@H]2O)c1 [3-methoxybenzylamino, 6-(3-methoxybenzylamino)purine riboside]	5	6	12						Root number per plant (Rosa multiflora): 1.4; Total root length per plant (cm) (Rosa multiflora): 3.5 cm; Flower number per explant (Rosa multiflora): 0.00; Number of new shoots per explant (Rosa multiflora): 5.6; Root number per explant (Rosa multiflora): 0.0; Total root length per explant (cm) (Rosa multiflora): 0.0 cm
